In assay [1] the test system is B-cells containing BCR-ABL-T315I. Kind of assay: Proliferation, number of viable cells determined by trypan blue. Type of assay: cell-based. As for the experimental part: (§1) In FIG. 1A the number of viable cells at the indicated drug concentrations was determined by trypan blue. In FIG. 1B the expression of ABL and MCL-1 in K562 (myeloid) cells is inhibited by HHT. In FIG. 1C the expression of ABL in lymphoid cells with BCR-ABL or the BCR-ABL T315I mutation is inhibited by HHT.
(§2) Antibodies for Western Blot analysis against c-ABL, Mcl-1 and β-actin were purchased from Santa Cruz Biothechology (Santa Cruz, Calif.). Protein lysates were prepared by lysing cells in RIPA buffer and immunoprecipitation. The retroviral vector MSCV-IRES-eGFP carrying the BCR-ABL cDNA was used to make virus stock for bone marrow transduction/transplantation. Four- to 10-week-old wild-type BABL/c or C57BL/6 (The Jackson Laboratory) and homozygous SRC triple gene knockout (Lyn−/−Hck−/−Fgr−/−) mice were used for leukemogenesis experiments. HHT (ChemGenex Pharmaceuticals, Inc, CA) was dissolved in accompanying diluent to a stock concentration of 1 mg/ml. Further dilutions were made to working concentrations using media or water.

The test system of assay [2] is B-cells containing BCR-ABL-WT. The description is as above. Type of assay: cell-based. On the procedure: as §1, §2
The test system of the next assay is K562 myeloid cells. The assay is described as above. Type of assay: cell-based. On the procedure:
as §1, §2

The test system of a further assay is ABL. Kind of assay: Western Blot analysis of ABL expression. Type of assay: cell-based. As for the experimental part: as §1, §2
A further assay deals with MCL-1. As to the kind of experiment: Western Blot analysis of MCL-1 expression in K562 cells. The format is cell-based. As to conditions: K562 (myeloid) cells. On the procedure: as §1, §2
Background: A western blot detects proteins with antibodies after separation by electrophoresis.

For a further assay, the system named is BCR-ABL-WT-induced CML. Kind of assay: Mice with BCR-ABL-WT-induced CML treated with HHT. The format is in vivo. On the procedure: FIG. 2A is a FACS analysis of circulating GFP+ cells in mice with BCR-ABL-WT-induced CML. […] The number of circulating leukemic cells (calculated as percentage of Gr-1+GFP+ cells×white blood cell count) in mice with BCR-ABL-WT-induced CML treated with placebo or HHT for 4 days was determined on day 12 after transplantation. FIG. 2B depicts a bar graph for the leukemic cells as well as a bar graph for spleen weight of the mice treated with placebo or HHT.
as §2
FIG. 2A is a FACS analysis of circulating leukemic GFP+ cells in mice with BCR-ABL-WT-induced CML. […] The number of circulating leukemic cells (calculated as percentage of Gr-1+GFP+ cells×white blood cell count) in mice with BCR-ABL-WT-induced CML treated with placebo or HHT for 4 days was determined on day 12 after transplantation. FIG. 2B depicts a bar graph for the leukemic cells as well as a bar graph for spleen weight of the mice treated with placebo or HHT.

Another assay concerns BCR-ABL-induced B-ALL. Kind of assay: Mice with BCR-ABL-induced B-ALL treated with HHT. Type of assay: in vivo. As for the experimental part: FIG. 4A is a FACS analysis evaluation of the leukemic process in HHT or placebo treated B-ALL mice after 4 days or 10 days.
as §2

Assay [3] has as its system leukemia stem cells of mice with BCR-ABL-WT-induced CML. Kind of assay: Leukemic cells and leukemia stem cells in bone marrow of treated CML mice, FACS. Type of assay: in vivo. The settings on record: HHT 0.5 mg/kg once every day, imatinib 100 mg/kg twice a day, by gavage, 4 days beginning at day 8 after transplantation. As for the experimental part:
FIG. 5A is a FACS analysis of bone marrow cells isolated from mice with BCR-ABL-WT-induced CML were cultured in vitro (5×10^6 cells/6 cm tissue culture plate) in the presence of different doses of HHT for 6 days (changing the stem cell medium containing placebo or HHT at day 3) followed by FACS analysis of leukemia stem cells (GFP+Lin− c-Kit+Sca-1+). FIG. 5B depicts bar graphs for the leukemic cells and leukemic stem cells. […] Bone marrow cells were isolated from the treated CML mice, and leukemia stem cells were analyzed by FACS. The numbers of cells represent total leukemia stem cells in average from femur and tibia of each treated CML mouse.
Bone marrow cells were isolated from the treated CML mice, and leukemia stem cells were analyzed by FACS. The numbers of cells represent total leukemia stem cells in average from femur and tibia of each treated CML mouse.

Regarding `COC(=O)C[C@](O)(CCCC(C)(C)O)C(=O)O[C@@H]1C(OC)=C[C@]23CCCN2CCc2cc4c(cc2[C@H]13)OCO4` [HHT, Homoharringtonine], the proliferation entry (in assay [1]; in assay [2]; in the assay on K562 myeloid cells) was “inhibits the proliferation” throughout. For the same compound, the “expression of ABL” value in the assay on ABL (K562 (myeloid) cells), in the assay on ABL (lymphoid cells with BCR-ABL) and in the assay on ABL (lymphoid cells with the BCR-ABL T315I mutation) was “inhibited” throughout. The “expression of MCL-1” value in the assay on MCL-1 is recorded as “inhibited”. Moreover, the survival entry is given as “significantly increased” in the assay on BCR-ABL-WT-induced CML (BCR-ABL-WT CML mice, HHT vs placebo) and “prolonged survival” with BCR-ABL-induced B-ALL (B-ALL mice, HHT 1 mg/kg). In addition, the “number of circulating leukemic cells (percentage of Gr-1+GFP+ cells×white blood cell count)” value in the assay with BCR-ABL-WT-induced CML (HHT 0.5 mg/kg for 4 days, day 12 after transplantation, vs placebo) is given as “significantly reduces”. The “size of the spleen (spleen weight)” value with BCR-ABL-WT-induced CML (HHT 0.5 mg/kg vs placebo) was “significantly reduces”. The “leukemic cells (FACS)” value with BCR-ABL-induced B-ALL (B-ALL mice after 4 days or 10 days, HHT vs placebo) is “significant reduction in leukemic cells as a function of treatment time and HHT dosage”. In assay [3], the “number of leukemic cells in bone marrow” value is “reduces”. Moreover, the “number of leukemic stem cells in bone marrow (femur and tibia)” value in assay [3] is on record as “reduces”.

The record behind these values is patent publication US20090176759A1, “LEUKEMIC STEM CELL ABLATION” (ChemGenex Pharmaceuticals, Inc., priority 2007, published 2009).
